For series [1], the target named is T1, androgen receptor (AR) (Homo sapiens, UniProt P10275, Q868H).
T1 construct: MDA-kb2 cells are human breast cancer cells stably transfected with a firefly luciferase reporter gene; endogenous in cells; host or cells: MDA-kb2 (human breast cancer cells)
T1 sequence (P10275 1-920 Q868H): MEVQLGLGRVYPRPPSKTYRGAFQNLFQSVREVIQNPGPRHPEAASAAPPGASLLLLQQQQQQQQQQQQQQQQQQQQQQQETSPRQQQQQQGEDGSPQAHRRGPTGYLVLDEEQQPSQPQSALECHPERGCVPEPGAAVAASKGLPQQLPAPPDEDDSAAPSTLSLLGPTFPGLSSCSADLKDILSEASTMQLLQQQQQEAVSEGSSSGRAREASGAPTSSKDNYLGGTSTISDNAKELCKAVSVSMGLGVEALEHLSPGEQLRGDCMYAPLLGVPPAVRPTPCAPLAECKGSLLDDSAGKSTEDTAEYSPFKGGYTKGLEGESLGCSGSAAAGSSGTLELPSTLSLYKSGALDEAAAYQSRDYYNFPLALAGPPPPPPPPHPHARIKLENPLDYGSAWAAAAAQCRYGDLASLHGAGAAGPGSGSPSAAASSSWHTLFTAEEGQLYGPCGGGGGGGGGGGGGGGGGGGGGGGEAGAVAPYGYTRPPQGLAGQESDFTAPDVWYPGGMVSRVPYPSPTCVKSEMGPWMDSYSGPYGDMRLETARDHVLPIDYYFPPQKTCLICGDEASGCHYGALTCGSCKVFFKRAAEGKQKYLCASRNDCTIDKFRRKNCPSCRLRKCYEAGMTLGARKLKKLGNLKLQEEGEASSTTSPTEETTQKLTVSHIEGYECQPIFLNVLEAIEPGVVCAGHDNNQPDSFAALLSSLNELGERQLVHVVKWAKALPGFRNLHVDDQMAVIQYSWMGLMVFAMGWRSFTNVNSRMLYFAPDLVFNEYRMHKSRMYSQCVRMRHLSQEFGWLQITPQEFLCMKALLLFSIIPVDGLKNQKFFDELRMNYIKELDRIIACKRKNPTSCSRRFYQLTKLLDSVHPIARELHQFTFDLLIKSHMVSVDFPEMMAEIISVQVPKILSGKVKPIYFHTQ
The experiment in a line: cell-based. Conditions: for IC20: MDA-kb2, read-out: Antiandrogen IC20 (μM) MDA-kb2. How it is done:
(§1) MDA-kb2 cells are human breast cancer cells stably transfected with a firefly luciferase reporter gene that is driven by an androgen-response element–containing promoter ([Wilson et al. 2002]). Details of the modified assay were published previously ([Ermler et al. 2010]). Briefly, cells were seeded at a concentration of 1 × 10^5 cells/mL in phenol red–free Leibowitz-15 medium (Invitrogen Ltd., Paisley, UK) containing 10% (charcoal-stripped) fetal calf serum (Invitrogen Ltd.) in white luminometer plates and allowed to attach for 24 hr. Cells were then exposed to eight serial dilutions of selected pesticides with or without DHT (0.25 nM). After 24 hr, luciferase activity was determined with SteadyGlo assay reagent (Promega UK Ltd., Southampton, Hampshire, UK) and measured in a plate reader (FLUOstar Optima, BMG Labtech GmbH, Offenburg, Germany). […] All concentrations were tested in duplicate over two plates, and each pesticide was measured at least twice in separate experiments. For comparative purposes, luminescence was normalized to DHT alone at coexposure concentration (maximum response, 100%) and solvent-only (ethanol) controls (minimum response, 0%). […] Pesticides were initially tested over a concentration range of 0.64 nM–50 μM (5× dilutions) as a range-finding exercise. Subsequently, the concentration ranges were modified to reflect the potency and toxicity of each individual compound. […] Sixty percent of the pesticides were repeat tested using the same product but with new stock solutions and by a different experimenter.
(§2) To analyze antiandrogenic action, raw luminescence readings were normalized on a plate-by-plate basis to the means of the positive DHT controls (n = 8) and the solvent controls (n = 8) ([Ermler et al. 2010]). […] Specifically, a variety of nonlinear regression models were fitted independently to the same data set, and the best-fitting model was selected using a statistical goodness-of-fit criterion. […] Data considered to be statistically significant at p < 0.05 were analyzed using the best-fit approach as described above. All statistical analysis was performed using SAS statistical software (SAS Institute Inc., Cary, NC, USA). From the best-fitting model, we derived inhibitory concentrations for antiandrogenicity and effect concentrations for cytotoxicity.

Another series has as its system MDA-kb2 cells. Particulars: for Cytotoxic EC20 (μM) MDA-kb2: EC20 = concentration that produces a 20% effect. How it is done: as §1, §2
The target of series [2] is T1, androgen receptor (AR). Format: cell-based. How it is done:
as §1, §2

A further series deals with yeast. In words: YAS, cytotoxicity (turbidity at 620 nm). Format: cell-based. Particulars: for Cytotoxic EC20 (μM) YAS: EC20 = concentration that produces a 20% effect, yeast turbidity. How it is done:
The methods for the YAS have been described previously ([Sohoni and Sumpter 1998]). Briefly, stimulation of the transfected AR causes a color change in the media, which is measured by absorbance at 540 nm (Labsystems Multiskan Multisoft, Vienna, VA, USA). Plates were also measured at 620 nm to measure cell growth (turbidity) to check for any cytotoxic effects that may have occurred. Pesticides were coincubated with DHT (6.4 nM). […] Incubation time was 53 hr at 28°C. […] Pesticide serial dilutions were tested in duplicate over two plates and were tested in two separate experiments.

The mark [3] stands for this setting: androgenic in the absence of DHT, Neg = no response was observed.
[4] abbreviates: total exposure score / IC20 (MDA-kb2), recalculated using experimental data.

“Also recorded” adds a separate entry of the source. Where two headings read alike, the source gives them in different places.

These results are taken from paper PMC3114813 (Environmental Health Perspectives, 2011).

Usually IC20 stands for the concentration needed for an effect of 20%. `O=S1OCC2C(CO1)C1(Cl)C(Cl)=C(Cl)C2(Cl)C1(Cl)Cl` (stereo not shown) [Endosulfan]: on androgen receptor (AR) [1], the “Antiandrogenic activity in the MDA-kb2 assay (in words)” value (from here on “Antiandrogenic activity”) was “in vitro AR antagonists”, the “ERR (environmental relevance ratio)” value was 3.1 and the IC20 came out at 6.05 µM. Also, in the series with MDA-kb2 cells, the “Cytotoxic EC20 (μM) MDA-kb2” value was 33.8 µM. Moreover, the “Androgen EC20 (μM) MDA-kb2” value on androgen receptor (AR) [2] is on record as “Neg”.
Take `Cc1c(COC(=O)[C@@H]2[C@H](/C=C(\Cl)C(F)(F)F)C2(C)C)cccc1-c1ccccc1` (racemic) [Bifenthrin]: in the series on MDA-kb2 cells, the “Cytotoxicity in the MDA-kb2 assay (in words)” value is “cytotoxic” and the “Cytotoxic EC20 (μM) MDA-kb2” value is 22.2 µM. The “Cytotoxic EC20 (μM) YAS” value in the series with yeast was > 200 µM.
On to `CC(C)C(=O)Nc1ccc([N+](=O)[O-])c(C(F)(F)F)c1` [flutamide, reference compound], for which the “Cytotoxicity in the MDA-kb2 assay (in words)” value in the series on MDA-kb2 cells is given as “overlap of toxic effects on the cells with antiandrogenic activity”.
Take `CCCN(CC)CC1COC2(CCC(C(C)(C)C)CC2)O1` (stereo not shown) [Spiroxamine]: the “Cytotoxic EC20 (μM) MDA-kb2” value in the series on MDA-kb2 cells was determined as 9.29 µM.
Still for that read-out and setting: next, `O=C(NC(=O)c1c(F)cccc1F)Nc1ccc(OC(F)(F)C(F)OC(F)(F)F)c(Cl)c1` (stereo not shown) [Novaluron]: > 50 µM; `CCOC(=O)OC1=C(c2cc(C)ccc2C)C(=O)N[C@]12CC[C@@H](OC)CC2` [Spirotetramat]: > 50 µM.
Turning to `COC(=O)N(C(=O)N1CO[C@@]2(C(=O)OC)Cc3cc(Cl)ccc3C2=N1)c1ccc(OC(F)(F)F)cc1` [Indoxacarb], the “Antiandrogen IC20 (μM) MDA-kb2” value on androgen receptor (AR) [1] was “Neg”. For the same compound, the “Cytotoxic EC20 (μM) MDA-kb2” value in the series with MDA-kb2 cells came to 11.3 µM. Moreover, the “Androgen EC20 (μM) MDA-kb2” value on androgen receptor (AR) [2] (setting [3]) is on record as “Neg”.
`CCCSP(=O)(OCC)Oc1ccc(Br)cc1Cl` (stereo not shown) [Profenofos]: in the series on MDA-kb2 cells, the “Cytotoxic EC20 (μM) MDA-kb2” value is 8.61 µM.
Consider `C#CCOS(=O)OC1CCCCC1Oc1ccc(C(C)(C)C)cc1` (stereo not shown) [Propargite], for which, in the series on MDA-kb2 cells, the “Cytotoxic EC20 (μM) MDA-kb2” value came out at 0.487 µM.
For `CC(C)OC(=O)C(O)(c1ccc(Br)cc1)c1ccc(Br)cc1` [Bromopropylate], on androgen receptor (AR) [1], the IC20 stood at 0.54 µM. Besides, the “Antiandrogenic activity” value on androgen receptor (AR) [1] (MDA-kb2 / 'our assay') is listed as “in vitro AR antagonists”. For the same compound, the “ERR (environmental relevance ratio)” value on androgen receptor (AR) [1] (setting [4]) is on record as 24.1. The “Cytotoxic EC20 (μM) MDA-kb2” value in the series on MDA-kb2 cells was 27.2 µM. Besides, on androgen receptor (AR) [2] (setting [3]), the “Androgen EC20 (μM) MDA-kb2” value was “Neg”.
For the compound `Oc1ccccc1-c1ccccc1` [O-Phenylphenol], in the series on MDA-kb2 cells, the “Cytotoxic EC20 (μM) MDA-kb2” value is > 50 µM.
For `ClC(Cl)=C(c1ccc(Cl)cc1)c1ccc(Cl)cc1` [p,p′-DDE, p,p′-1,1-bis-(4-chlorophenyl)-2,2-dichloroethene], in the series on MDA-kb2 cells, the “Cytotoxic EC20 (μM) MDA-kb2” value was > 50 µM.
For `CO/C=C(/C(=O)OC)c1ccccc1Oc1cc(Oc2ccccc2C#N)ncn1` [Azoxystrobin], the “Antiandrogen IC20 (μM) MDA-kb2” value on androgen receptor (AR) [1] is reported as “Neg”. For the same compound, the “Cytotoxic EC20 (μM) MDA-kb2” value in the series with MDA-kb2 cells worked out at 2.9 µM. Besides, the “Androgen EC20 (μM) MDA-kb2” value at androgen receptor (AR) [2] (setting [3]) is “Neg”.
Consider `Cc1cc(C)nc(Nc2ccccc2)n1` [Pyrimethanil], for which, in the series with MDA-kb2 cells, the “Cytotoxic EC20 (μM) MDA-kb2” value is > 125 µM. Further, in the series with yeast, the “Cytotoxic EC20 (μM) YAS” value amounted to 167 µM and the “Cytotoxicity in the YAS assay (in words)” value is “cytotoxic”.
As to `COP(=S)(OC)Oc1ccc([N+](=O)[O-])c(C)c1` [Fenitrothion], in the series with MDA-kb2 cells, the “Cytotoxic EC20 (μM) MDA-kb2” value was > 50 µM.
Regarding `CC1(C)C(/C=C(\Cl)C(F)(F)F)C1C(=O)OC(C#N)c1cccc(Oc2ccccc2)c1` (stereo not shown) [λ-Cyhalothrin], in the series on MDA-kb2 cells, the “Cytotoxic EC20 (μM) MDA-kb2” value stood at 51.4 µM. Also, the “Cytotoxic EC20 (μM) YAS” value in the series on yeast is > 200 µM.
In the case of `Cc1cc(C2CC2)nc(Nc2ccccc2)n1` [Cyprodinil], the “Cytotoxic EC20 (μM) MDA-kb2” value with MDA-kb2 cells is > 50 µM.
As to `CC(C)OC(=O)Nc1cccc(Cl)c1` [Chlorpropham], the “Cytotoxic EC20 (μM) MDA-kb2” value with MDA-kb2 cells is > 50 µM. Besides, the “Cytotoxic EC20 (μM) YAS” value in the series with yeast is > 40 µM.
On to `OC(c1ccc(Cl)cc1)(c1ccc(Cl)cc1)C(Cl)(Cl)Cl` [Dicofol], for which the “Cytotoxic EC20 (μM) MDA-kb2” value in the series on MDA-kb2 cells came out at 29.0 µM.
`COP(=S)(OC)SCn1nnc2ccccc2c1=O` [Azinphos-methyl]: the “Antiandrogenic activity” value at androgen receptor (AR) [1] (MDA-kb2 / 'our assay') is given as “antiandrogenic; also recorded: in vitro AR antagonists”. For the same compound, in the series on MDA-kb2 cells, the “Cytotoxic EC20 (μM) MDA-kb2” value worked out at 33.9 µM. The “Cytotoxic EC20 (μM) YAS” value in the series with yeast was > 150 µM. The “Androgen EC20 (μM) MDA-kb2” value at androgen receptor (AR) [2] (setting [3]) is listed as “Neg”.
Turning to Spinosad, the “Antiandrogen IC20 (μM) MDA-kb2” value on androgen receptor (AR) [1] is “Neg”. Also, the “Cytotoxic EC20 (μM) MDA-kb2” value in the series on MDA-kb2 cells is 13.1 µM. Besides, on androgen receptor (AR) [2] (setting [3]), the “Androgen EC20 (μM) MDA-kb2” value is on record as “Neg”.
On to `C=CC1(C)OC(=O)N(c2cc(Cl)cc(Cl)c2)C1=O` (stereo not shown) [Vinclozolin], for which, in the series with MDA-kb2 cells, the “Cytotoxic EC20 (μM) MDA-kb2” value was > 50 µM.
Turning to `COC(=O)N(OC)c1ccccc1COc1ccn(-c2ccc(Cl)cc2)n1` [Pyraclostrobin], the “Cytotoxic EC20 (μM) MDA-kb2” value in the series on MDA-kb2 cells turned out to be 0.089 µM.
On to `CNC(=O)Oc1cc(C)c(SC)c(C)c1` [Methiocarb], for which, on androgen receptor (AR) [1], the IC20 is 6.82 µM. The “ERR (environmental relevance ratio)” value on androgen receptor (AR) [1] (setting [4]) is on record as 2.5. Moreover, in the series on MDA-kb2 cells, the “Cytotoxic EC20 (μM) MDA-kb2” value was > 46 µM. Further, the “Androgen EC20 (μM) MDA-kb2” value at androgen receptor (AR) [2] (setting [3]) is “Neg”.
Turning to `CC1COC(Cn2cncn2)(c2ccc(Oc3ccc(Cl)cc3)cc2Cl)O1` (stereo not shown) [Difenoconazole], the “Cytotoxic EC20 (μM) MDA-kb2” value in the series with MDA-kb2 cells worked out at 2.91 µM. Further, in the series with yeast, the “Cytotoxic EC20 (μM) YAS” value came to 0.109 µM and the “Cytotoxicity in the YAS assay (in words)” value is on record as “cytotoxic”.
`Fc1ccc(Oc2ccnc3cc(Cl)cc(Cl)c23)cc1` [Quinoxyfen]: in the series with MDA-kb2 cells, the “Cytotoxic EC20 (μM) MDA-kb2” value is 10.1 µM. Further, the “Cytotoxic EC20 (μM) YAS” value in the series with yeast is > 75 µM.
Regarding `C#CCOc1ccc(CCNC(=O)C(OCC#C)c2ccc(Cl)cc2)cc1OC` (stereo not shown) [Mandipropamid], the “Antiandrogen IC20 (μM) MDA-kb2” value on androgen receptor (AR) [1] was “Neg”. Also, the “Cytotoxic EC20 (μM) MDA-kb2” value in the series with MDA-kb2 cells came to 8.92 µM. Besides, on androgen receptor (AR) [2] (setting [3]), the “Androgen EC20 (μM) MDA-kb2” value was “Neg”.
